According to US7064120B2, “Tricyclic pyridyl carboxamides and derivatives thereof tocolytic oxytocin receptor antagonists” (Wyeth, priority 2001, dated 2006):

What follows are molecules tested against T1, human oxytocin receptor (Homo sapiens, UniProt P30559) (assay: Oxytocin binding in CHO cell membranes expressing human oxytocin receptors ([3H]oxytocin radioligand binding)). Details: 100 nM, read-out: OT % inhibition @ 100 nM.
T1 construct: host or cells: CHO cells, stably transfected (pcDNA3.1 vector)
T1 sequence (P30559 1-389): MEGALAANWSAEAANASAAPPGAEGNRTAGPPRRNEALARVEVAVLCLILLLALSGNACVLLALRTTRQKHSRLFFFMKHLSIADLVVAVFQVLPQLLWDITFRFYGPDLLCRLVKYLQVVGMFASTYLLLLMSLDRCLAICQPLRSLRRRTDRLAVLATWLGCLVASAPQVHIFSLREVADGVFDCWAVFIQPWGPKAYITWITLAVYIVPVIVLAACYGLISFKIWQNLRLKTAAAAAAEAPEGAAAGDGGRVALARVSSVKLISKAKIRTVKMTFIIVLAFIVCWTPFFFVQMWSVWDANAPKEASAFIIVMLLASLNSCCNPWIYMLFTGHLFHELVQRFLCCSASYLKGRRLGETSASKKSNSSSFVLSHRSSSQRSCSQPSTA
Procedure, shortened: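 Values are % inhibition at one concentration or nM IC50 from [3H]oxytocin displacement. Membranes from human oxytocin receptor CHO cells, 25–50 μg protein/well, 60 min at room temperature, pH 7.4 Tris buffer with protease inhibitors; bound label by filtration and scintillation counting.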

| Compound | inhibition at 0.1 µM [%] |
| --- | --- |
| COc1cc(C(=O)N2Cc3ccc(C(=O)NCc4ccncc4)n3Cc3ccccc32)ccc1-c1cccc2ccccc12 [Example 96, 10-[3-Methoxy-4-(naphthalen-1-yl)benzoyl]-N-(4-pyridinylmethyl)-10,11-dihydro-5H-pyrrolo[2,1-c][1,4]benzodiazepine-3-carboxamide] | 28 |
| COc1ccccc1-c1ccc(C(=O)N2Cc3ccc(C(=O)N4CCN(c5ccccn5)CC4)n3Cc3ccccc32)cc1OC [Example 84, {10-[(2,2′-Dimethoxy-[1,1′-biphenyl]-4-yl)carbonyl]-10,11-dihydro-5H-pyrrolo[2,1-c][1,4]benzodiazepin-3-yl}[4-(2-pyridinyl)-1-piperazinyl]methanone] | 46 |
| Cc1ccccc1-c1ccc(C(=O)N2Cc3ccc(C(=O)N(C)Cc4cccnc4)n3Cc3ccccc32)cc1 [Example 105, N-Methyl-10-[(2′-methyl-[1,1′-biphenyl]-4-yl)carbonyl]-N-(3-pyridinylmethyl)-10,11-dihydro-5H-pyrrolo[2,1-c][1,4]benzodiazepine-3-carboxamide] | -9 |
| CN(CCc1ccccn1)C(=O)c1ccc2n1Cc1ccccc1N(C(=O)c1ccc(-c3cccc4ccccc34)cc1Cl)C2 [Example 73, 10-[2-Chloro-4-(naphthalen-1-yl)benzoyl]-N-methyl-N-[2-(2-pyridinyl)ethyl]-10,11-dihydro-5H-pyrrolo[2,1-c][1,4]benzodiazepine-3-carboxamide] | 32 |
| Cc1ccccc1-c1ccc(C(=O)N2Cc3ccc(C(=O)N(C)CCc4ccccn4)n3Cc3ccccc32)cc1 [Example 68, N-Methyl-10-[(2′-methyl-[1,1′-biphenyl]-4-yl)carbonyl]-N-[2-(2-pyridinyl)ethyl]-10,11-dihydro-5H-pyrrolo[2,1-c][1,4]benzodiazepine-3-carboxamide] | 93 |
| Cc1ccccc1-c1ccc(C(=O)N2Cc3ccc(C(=O)N4CCN(c5ccccn5)CC4)n3Cc3ccccc32)cc1C [Example 76, {10-[(2,2′-Dimethyl-[1,1′-biphenyl]-4-yl)carbonyl]-10,11-dihydro-5H-pyrrolo[2,1-c][1,4]benzodiazepin-3-yl}[4-(2-pyridinyl)-1-piperazinyl]methanone] | 62 |
| COc1ccccc1-c1ccc(C(=O)N2Cc3ccc(C(=O)N(C)CCc4ccccn4)n3Cc3ccccc32)cc1C [Example 65, 10-[(2′-Methoxy-2-methyl-[1,1′-biphenyl]-4-yl)carbonyl]-N-methyl-N-[2-(2-pyridinyl)ethyl]-10,11-dihydro-5H-pyrrolo[2,1-c][1,4]benzodiazepine-3-carboxamide] | 95 |
| Cc1cc(C(=O)N2Cc3ccc(C(=O)NCc4ccncc4)n3Cc3ccccc32)ccc1-c1ccccc1C(F)(F)F [Example 100, 10-{[2-Methyl-2′-trifluoromethyl-[1,1′-biphenyl]-4-yl]carbonyl}-N-(4-pyridinylmethyl)-10,11-dihydro-5H-pyrrolo[2,1-c][1,4]benzodiazepine-3-carboxamide] | 24 |
| COc1cccc(-c2cc(OC)c(C(=O)N3Cc4ccc(C(=O)N5CCN(c6ccccn6)CC5)n4Cc4ccccc43)cc2Cl)c1 [Example 82, {10-[(6-Chloro-3,3′-dimethoxy-[1,1′-biphenyl]-4-yl)carbonyl]-10,11-dihydro-5H-pyrrolo[2,1-c][1,4]benzodiazepin-3-yl}[4-(2-pyridinyl)-1-piperazinyl]methanone] | 27 |
| COc1ccccc1-c1ccc(C(=O)N2Cc3ccc(C(=O)N4CCN(c5ccccn5)CC4)n3Cc3ccccc32)cc1C [Example 75, {10-[(2′-Methoxy-2-methyl-[1,1′-biphenyl]-4-yl)carbonyl]-10,11-dihydro-5H-pyrrolo[2,1-c][1,4]benzodiazepin-3-yl}[4-(2-pyridinyl)-1-piperazinyl]methanone] | 62 |
| COc1cc(-c2ccccc2C)c(Cl)cc1C(=O)N1Cc2ccc(C(=O)NCc3ccncc3)n2Cc2ccccc21 [Example 94, 10-[(6-Chloro-3-methoxy-2′-methyl-[1,1′-biphenyl]-4-yl)carbonyl]-N-(4-pyridinylmethyl)-10,11-dihydro-5H-pyrrolo[2,1-c][1,4]benzodiazepine-3-carboxamide] | 37 |
| COc1ccccc1-c1ccc(C(=O)N2Cc3ccc(C(=O)NCc4ccncc4)n3Cc3ccccc32)cc1 [Example 91, 10-[(2′-Methoxy-[1,1′-biphenyl]-4-yl)carbonyl]-N-(4-pyridinylmethyl)-10,11-dihydro-5H-pyrrolo[2,1-c][1,4]benzodiazepine-3-carboxamide] | 44 |
| COc1ccccc1-c1ccc(C(=O)N2Cc3ccc(C(=O)NCc4ccncc4)n3Cc3ccccc32)cc1C [Example 88, 10-[(2′-Methoxy-2-methyl-[1,1′-biphenyl]-4-yl)carbonyl]-N-(4-pyridinylmethyl)-10,11-dihydro-5H-pyrrolo[2,1-c][1,4]benzodiazepine-3-carboxamide] | 44 |
| COc1cc(C(=O)N2Cc3ccc(C(=O)NCc4ccncc4)n3Cc3ccccc32)ccc1-c1ccccc1C [Example 93, 10-[(2-Methoxy-2′-methyl-[1,1′-biphenyl]-4-yl)carbonyl]-N-(4-pyridinylmethyl)-10,11-dihydro-5H-pyrrolo[2,1-c][1,4]benzodiazepine-3-carboxamide] | 69 |
| COc1cccc(-c2ccc(C(=O)N3Cc4ccc(C(=O)NCc5ccncc5)n4Cc4ccccc43)cc2C)c1 [Example 90, 10-[(3′-Methoxy-2-methyl-[1,1′-biphenyl]-4-yl)carbonyl]-N-(4-pyridinylmethyl)-10,11-dihydro-5H-pyrrolo[2,1-c][1,4]benzodiazepine-3-carboxamide] | 44 |
| COc1ccccc1-c1ccc(C(=O)N2Cc3ccc(C(=O)N4CCN(c5ccccn5)CC4)n3Cc3ccccc32)cc1 [Example 78, {10-[(2′-Methoxy-[1,1′-biphenyl]-4-yl)carbonyl]-10,11-dihydro-5H-pyrrolo[2,1-c][1,4]benzodiazepin-3-yl}[4-(2-pyridinyl)-1-piperazinyl]methanone] | 59 |
| Cc1cc(C(=O)N2Cc3ccc(C(=O)N(C)CCc4ccccn4)n3Cc3ccccc32)ccc1-c1ccccc1C(F)(F)F [Example 74, N-Methyl-10-{[2-methyl-2′-trifluoromethyl-[1,1′-biphenyl]-4-yl]carbonyl}-N-[2-(2-pyridinyl)ethyl]-10,11-dihydro-5H-pyrrolo[2,1-c][1,4]benzodiazepine-3-carboxamide] | 91 |
| COc1cccc(-c2ccc(C(=O)N3Cc4ccc(C(=O)N(C)CCc5ccccn5)n4Cc4ccccc43)cc2OC)c1 [Example 72, 10-[(2,3′-Dimethoxy-[1,1′-biphenyl]-4-yl)carbonyl]-N-methyl-N-[2-(2-pyridinyl)ethyl]-10,11-dihydro-5H-pyrrolo[2,1-c][1,4]benzodiazepine-3-carboxamide] | 89 |
| COc1cccc(-c2ccc(C(=O)N3Cc4ccc(C(=O)N5CCN(c6ccccn6)CC5)n4Cc4ccccc43)cc2C)c1 [Example 77, {10-[(3′-Methoxy-2-methyl-[1,1′-biphenyl]-4-yl)carbonyl]-10,11-dihydro-5H-pyrrolo[2,1-c][1,4]benzodiazepin-3-yl}[4-(2-pyridinyl)-1-piperazinyl]methanone] | 21 |
| COc1ccccc1-c1ccc(C(=O)N2Cc3ccc(C(=O)N(C)CCc4ccccn4)n3Cc3ccccc32)cc1 [Example 67, 10-[(2′-Methoxy-[1,1′-biphenyl]-4-yl)carbonyl]-N-methyl-N-[2-(2-pyridinyl)ethyl]-10,11-dihydro-5H-pyrrolo[2,1-c][1,4]benzodiazepine-3-carboxamide] | 91 |

Same assay, conditions: value in parentheses, read-out: OT (IC50)

| Compound | IC50 [nM] |
| --- | --- |
| COc1cc(-c2ccccc2C(F)(F)F)c(Cl)cc1C(=O)N1Cc2ccc(C(=O)N(C)Cc3cccnc3)n2Cc2ccccc21 [Example 5, 10-{[6-Chloro-3-methoxy-2′-trifluoromethyl-[1,1′-biphenyl]-4-yl]carbonyl}-N-methyl-N-(pyridin-3-ylmethyl)-10,11-dihydro-5H-pyrrolo[2,1-c][1,4]benzodiazepine-3-carboxamide] | 10.2 |
| COc1ccccc1-c1ccc(C(=O)N2Cc3ccc(C(=O)N(C)Cc4cccnc4)n3Cc3ccccc32)cc1OC [Example 103, 10-[(2,2′-Dimethoxy-[1,1′-biphenyl]-4-yl)carbonyl]-N-methyl-N-(3-pyridinylmethyl)-10,11-dihydro-5H-pyrrolo[2,1-c][1,4]benzodiazepine-3-carboxamide] | 6.25 |
| COc1cc(-c2ccccc2Cl)c(Cl)cc1C(=O)N1Cc2ccc(C(=O)N(C)Cc3cccnc3)n2Cc2ccccc21 [Example 6, 10-[(2′,6-Dichloro-3-methoxy-[1,1′-biphenyl]-4-yl)carbonyl]-N-methyl-N-(pyridin-3-ylmethyl)-10,11-dihydro-5H-pyrrolo[2,1-c][1,4]benzodiazepine-3-carboxamide] | 7.51 |
| COc1cccc(-c2ccc(C(=O)N3Cc4ccc(C(=O)N(C)CCc5ccccn5)n4Cc4ccccc43)cc2C)c1 [Example 62, 10-[(3′-Methoxy-2-methyl-[1,1′-biphenyl]-4-yl)carbonyl]-N-methyl-N-[2-(2-pyridinyl)ethyl]-10,11-dihydro-5H-pyrrolo[2,1-c][1,4]benzodiazepine-3-carboxamide] | 10.7 |
| Cc1cc(C(=O)N2Cc3ccc(C(=O)N4CCN(c5ccncc5)CC4)n3Cc3ccccc32)ccc1-c1ccccc1C(F)(F)F [Example 1] | 11.2 |
